Results published in ChEMBL document CHEMBL1136107, “Improvement of therapeutic index of phosphodiesterase type IV inhibitors as anti-Asthmatics” (Bioorg Med Chem Lett, 2003).
Activity calls are given as the source filed them.

How the values were obtained:
Mustela putorius furo = test: Emetic effect in ferrets after peroral administration at 0.03 mg/kg (2/5); assay type: functional, organism-based; design: dose 0.03 mg/kg
Cavia porcellus [1] = test: Eosinophil infiltration in passively-sensitized guinea pig at 30 mg/kg peroral dose 90 min prior to challenge; assay type: functional; settings: route oral
Cavia porcellus [2] = test: Inhibition of bronchoconstriction in passively-sensitized guinea pig at 1 mg/kg iv dose 10 min prior to challenge; assay type: functional; settings: Lung

Compound | Emesis (Mustela putorius furo) | inhibition in vivo at 30 mg/kg (Cavia porcellus [1]) [%] | inhibition in vivo at 1 mg/kg (Cavia porcellus [2]) [%]
COc1ccc(C2CNC(=O)C2)cc1OC1CCCC1 (stereo not given) [ROLIPRAM] | Partially active | 62 | 95.4
COc1ccc(/C=N/NC(N)=O)cc1OC1CCCC1 | – | 63 | 90.3
